The target of one series is T1, MMP-1 full-length (Homo sapiens, UniProt P03956).
T1 sequence (P03956 100-469): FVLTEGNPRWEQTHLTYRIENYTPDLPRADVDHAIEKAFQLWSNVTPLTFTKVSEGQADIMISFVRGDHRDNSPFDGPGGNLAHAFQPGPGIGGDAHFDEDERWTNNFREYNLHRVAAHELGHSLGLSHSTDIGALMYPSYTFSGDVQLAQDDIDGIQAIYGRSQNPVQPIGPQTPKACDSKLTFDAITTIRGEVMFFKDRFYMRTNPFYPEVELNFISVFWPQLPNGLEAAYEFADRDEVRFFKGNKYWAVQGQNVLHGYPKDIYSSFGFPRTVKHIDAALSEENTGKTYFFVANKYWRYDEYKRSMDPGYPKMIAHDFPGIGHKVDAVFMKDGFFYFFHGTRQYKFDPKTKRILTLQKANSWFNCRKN
Briefly: MMP-1 full-length inhibition (thiopeptolide substrate hydrolysis). Conditions: read-out: MMP-1FL IC50. Type of series: biochemical. The text has this: (§1) Certain compounds of Formula I have been assayed with MMP-1 full-length, MMP-3 catalytic domain, MMP-7 full-length, MMP-8 full-length, MMP-9 full-length, MMP-12 catalytic domain, MMP-14 catalytic domain, and MMP-17 catalytic domain.
(§2) The assays measure the amount by which a test compound reduces the hydrolysis of a thiopeptolide substrate catalyzed by a matrix metalloproteinase enzyme. Such assays are described in detail by Ye et al., in Biochemistry, 1992; 31(45): 11231-11235, which is incorporated herein by reference. One such assay is described below in Biological Method 1.
(§3) Thiopeptolide substrates show virtually no decomposition or hydrolysis at or below neutral pH in the absence of a matrix metalloproteinase enzyme. A typical thiopeptolide substrate commonly utilized for assays is Ac-Pro-Leu-Gly-thioester-Leu-Leu-Gly-OEt. A 100 μL assay mixture will contain 50 mM of N-2-hydroxyethylpiperazine-N′-2-ethanesulfonic acid buffer (“HEPES,” pH 7.0), 10 mM CaCl2, 100 μM thiopeptolide substrate, and 1 mM 5,5′-dithio-bis-(2-nitro-benzoic acid) (DTNB). The thiopeptolide substrate concentration may be varied, for example from 10 to 800 μM to obtain Km and Kcat values. The change in absorbance at 405 nm is monitored on a Thermo Max microplate reader (molecular Devices, Menlo Park, Calif.) at room temperature (22° C.). The calculation of the amount of hydrolysis of the thiopeptolide substrate is based on E412=13600 M^−1 cm^−1 for the DTNB-derived product 3-carboxy-4-nitrothiophenoxide. […]
(§4) Some representative compounds of Formula I have been evaluated for their ability to inhibit MMP-13. Inhibitor activity versus other MMPs with the compounds may be determined using, for example, MMP-1FL, which refers to full length interstitial collagenase; MMP-2FL, which refers to full length Gelatinase A; MMP-3CD, which refers to the catalytic domain of stromelysin; MMP-7FL, which refers to full length matrilysin; MMP-9FL, which refers to full length Gelatinase B; MMP-13CD, which refers to the catalytic domain of collagenase 3; and MMP-14CD, which refers to the catalytic domain of MMP-14. […]

The target in a further series is T2, MMP-13 catalytic domain (Homo sapiens, UniProt P45452).
T2 construct: use the catalytic domain of the MMP-13 enzyme, namely matrix metalloproteinase-13 catalytic domain (“MMP-13CD”)
Briefly: MMP-13 catalytic domain inhibition (thiopeptolide substrate hydrolysis). It is filed as biochemical. The conditions noted are these: read-out: MMP-13CD IC50. The source says:
The assays measure the amount by which a test compound reduces the hydrolysis of a thiopeptolide substrate catalyzed by a matrix metalloproteinase enzyme. […] One such assay is described below in Biological Method 1.
Some of the particular methods described below use the catalytic domain of the MMP-13 enzyme, namely matrix metalloproteinase-13 catalytic domain (“MMP-13CD”), rather than the corresponding full-length enzyme, MMP-13.
Thiopeptolide substrates show virtually no decomposition or hydrolysis at or below neutral pH in the absence of a matrix metalloproteinase enzyme. A typical thiopeptolide substrate commonly utilized for assays is Ac-Pro-Leu-Gly-thioester-Leu-Leu-Gly-OEt. […] Assays are carried out with and without matrix metalloproteinase inhibitor compounds, and the amount of hydrolysis is compared for a determination of inhibitory activity of the test compounds.

The target in the next series is MMP-3 catalytic domain (Homo sapiens, UniProt P08254). As to the kind of experiment: MMP-3 catalytic domain inhibition (thiopeptolide substrate hydrolysis, MES buffer pH 6.0). The conditions noted are these: read-out: MMP-3CD IC50. Type of series: biochemical.
Excerpt: as §1, §2
(§5) Thiopeptolide substrates show virtually no decomposition or hydrolysis at or below neutral pH in the absence of a matrix metalloproteinase enzyme. A typical thiopeptolide substrate commonly utilized for assays is Ac-Pro-Leu-Gly-thioester-Leu-Leu-Gly-OEt. A 100 μL assay mixture will contain 50 mM of N-2-hydroxyethylpiperazine-N′-2-ethanesulfonic acid buffer (“HEPES,” pH 7.0), 10 mM CaCl2, 100 μM thiopeptolide substrate, and 1 mM 5,5′-dithio-bis-(2-nitro-benzoic acid) (DTNB). The thiopeptolide substrate concentration may be varied, for example from 10 to 800 μM to obtain Km and Kcat values. The change in absorbance at 405 nm is monitored on a Thermo Max microplate reader (molecular Devices, Menlo Park, Calif.) at room temperature (22° C.). The calculation of the amount of hydrolysis of the thiopeptolide substrate is based on E412=13600 M^−1 cm^−1 for the DTNB-derived product 3-carboxy-4-nitrothiophenoxide. Assays are carried out with and without matrix metalloproteinase inhibitor compounds, and the amount of hydrolysis is compared for a determination of inhibitory activity of the test compounds.
(§6) Test compounds were evaluated at various concentrations in order to determine their respective IC50 values, the micromolar concentration of compound required to cause a 50% inhibition of catalytic activity of the respective enzyme.
It should be appreciated that the assay buffer used with MMP-3CD was 50 mM N-morpholinoethane sulfonate (“MES”) at pH 6.0 rather than the HEPES buffer at pH 7.0 described above. […]
as §4

The next series concerns the target T3, MMP-17 catalytic domain (Homo sapiens, UniProt Q9ULZ9).
T3 construct: MMP-12 catalytic domain, MMP-14 catalytic domain, and MMP-17 catalytic domain
T3 sequence (Q9ULZ9 126-295 limits assumed): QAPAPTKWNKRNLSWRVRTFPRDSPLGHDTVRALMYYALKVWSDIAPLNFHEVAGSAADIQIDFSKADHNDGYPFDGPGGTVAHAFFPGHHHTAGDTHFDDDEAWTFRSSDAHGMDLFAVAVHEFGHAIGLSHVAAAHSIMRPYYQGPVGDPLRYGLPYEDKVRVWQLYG
Briefly: MMP-17 catalytic domain inhibition (thiopeptolide substrate hydrolysis). Type of series: biochemical. Conditions: read-out: MMP-17CD IC50.
Excerpt: as §1, §2, §5, §6

A further series addresses MMP-9 full-length (Homo sapiens, UniProt P14780). Briefly: MMP-9 full-length inhibition (thiopeptolide substrate hydrolysis). Type of series: biochemical. Conditions: read-out: MMP-9FL IC50.
Excerpt: as §1, §2, §5, §6
(§7) The test described above for the inhibition of MMP-13 may also be adapted and used to determine the ability of the compounds of Formula I to inhibit the matrix metalloproteases MMP-1, MMP-2, MMP-3, MMP-7, MMP-9, MMP-12 and MMP-14.
as §4

A further series addresses T4, MMP-8 full-length (Homo sapiens, UniProt P22894).
T4 construct: MMP-7 full-length, MMP-8 full-length, MMP-9 full-length
As to the kind of experiment: MMP-8 full-length inhibition (thiopeptolide substrate hydrolysis). Type of series: biochemical. Conditions: read-out: MMP-8FL IC50.
Excerpt: as §1, §2, §5, §6

Another series deals with T5, MMP-7 full-length (Homo sapiens, UniProt P09237).
T5 sequence (P09237 95-267): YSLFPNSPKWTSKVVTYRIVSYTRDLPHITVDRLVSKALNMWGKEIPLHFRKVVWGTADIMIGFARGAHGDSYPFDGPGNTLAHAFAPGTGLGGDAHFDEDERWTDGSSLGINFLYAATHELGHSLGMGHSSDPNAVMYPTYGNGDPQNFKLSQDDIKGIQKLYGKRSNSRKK
As to the kind of experiment: MMP-7 full-length inhibition (thiopeptolide substrate hydrolysis). It is filed as biochemical.
Excerpt: as §1, §2, §3, §4

The target in the next series is MMP-14 catalytic domain (Homo sapiens, UniProt P50281). Briefly: MMP-14 catalytic domain inhibition (thiopeptolide substrate hydrolysis). Type of series: biochemical. Conditions: read-out: MMP-14CD IC50.
Excerpt: as §1, §2, §5, §6, §7, §4

For a further series, the target named is T6, MMP-12 catalytic domain (Homo sapiens, UniProt P39900).
T6 construct: MMP-12 catalytic domain, MMP-14 catalytic domain, and MMP-17 catalytic domain
As to the kind of experiment: MMP-12 catalytic domain inhibition (thiopeptolide substrate hydrolysis). Type of series: biochemical. The conditions noted are these: read-out: MMP-12CD IC50.
Excerpt: as §1, §2
Thiopeptolide substrates show virtually no decomposition or hydrolysis at or below neutral pH in the absence of a matrix metalloproteinase enzyme. A typical thiopeptolide substrate commonly utilized for assays is Ac-Pro-Leu-Gly-thioester-Leu-Leu-Gly-OEt. A 100 μL assay mixture will contain 50 mM of N-2-hydroxyethylpiperazine-N′-2-ethanesulfonic acid buffer (“HEPES,” pH 7.0), 10 mM CaCl2, 100 μM thiopeptolide substrate, and 1 mM 5,5′-dithio-bis-(2-nitro-benzoic acid) (DTNB). The thiopeptolide substrate concentration may be varied, for example from 10 to 800 μM to obtain Km and Kcat values. The change in absorbance at 405 nm is monitored on a Thermo Max microplate reader (molecular Devices, Menlo Park, Calif.) at room temperature (22° C.). […]

SMILES strings stand for the structures.

T4 sequence (P22894 101-467): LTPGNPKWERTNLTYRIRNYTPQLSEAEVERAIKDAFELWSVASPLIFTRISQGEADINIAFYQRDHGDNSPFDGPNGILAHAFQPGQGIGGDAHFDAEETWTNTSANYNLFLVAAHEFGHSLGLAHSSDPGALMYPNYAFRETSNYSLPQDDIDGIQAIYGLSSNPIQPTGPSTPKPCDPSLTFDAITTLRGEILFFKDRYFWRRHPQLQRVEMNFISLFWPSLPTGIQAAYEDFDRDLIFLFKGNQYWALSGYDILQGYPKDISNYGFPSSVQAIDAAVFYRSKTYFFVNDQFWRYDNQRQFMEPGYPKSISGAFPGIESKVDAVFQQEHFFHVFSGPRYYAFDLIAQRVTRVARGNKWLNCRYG
Chain of MMP-3 catalytic domain (P08254 100-272 limits assumed): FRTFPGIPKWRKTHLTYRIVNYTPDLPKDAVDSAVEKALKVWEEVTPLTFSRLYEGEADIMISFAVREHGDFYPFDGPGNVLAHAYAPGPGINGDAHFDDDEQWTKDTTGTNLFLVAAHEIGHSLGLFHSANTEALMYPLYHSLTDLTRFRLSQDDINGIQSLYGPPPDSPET
Chain of MMP-9 full-length (P14780 94-707): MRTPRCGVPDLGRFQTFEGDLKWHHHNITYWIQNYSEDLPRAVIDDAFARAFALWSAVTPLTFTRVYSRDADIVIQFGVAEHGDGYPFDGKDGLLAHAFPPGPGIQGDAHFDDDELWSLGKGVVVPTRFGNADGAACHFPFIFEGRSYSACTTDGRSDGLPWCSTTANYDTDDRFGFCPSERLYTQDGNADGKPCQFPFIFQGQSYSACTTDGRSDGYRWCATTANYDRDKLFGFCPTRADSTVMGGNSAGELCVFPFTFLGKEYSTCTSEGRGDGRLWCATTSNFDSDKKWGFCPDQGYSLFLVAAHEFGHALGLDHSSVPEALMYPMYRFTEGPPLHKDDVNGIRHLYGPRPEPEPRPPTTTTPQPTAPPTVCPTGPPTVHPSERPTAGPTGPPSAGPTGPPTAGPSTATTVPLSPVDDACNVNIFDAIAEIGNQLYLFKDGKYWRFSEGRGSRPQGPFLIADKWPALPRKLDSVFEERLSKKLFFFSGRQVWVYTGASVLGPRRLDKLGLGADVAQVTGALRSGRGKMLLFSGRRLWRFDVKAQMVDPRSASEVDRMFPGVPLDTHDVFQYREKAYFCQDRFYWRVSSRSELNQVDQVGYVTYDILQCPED
T6 sequence (P39900 106-263 limits assumed): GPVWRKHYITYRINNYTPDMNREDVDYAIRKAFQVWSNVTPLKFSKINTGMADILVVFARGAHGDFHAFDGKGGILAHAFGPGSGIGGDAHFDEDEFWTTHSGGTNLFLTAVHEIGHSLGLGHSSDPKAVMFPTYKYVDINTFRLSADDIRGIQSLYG

As usually defined, the IC50 is the point on the concentration scale where inhibition reaches its midpoint. For the compound `O=C(O)c1ccc(Cc2nnc(-c3cccc(C#CCc4ccc(F)cc4)c3)s2)cc1` [Example C2, 4-(5-{3-[3-(4-Fluoro-phenyl)-prop-1-ynyl]-phenyl}-[1,3,4]thiadiazol-2-ylmethyl)-benzoic acid], the IC50 at MMP-1 full-length was more than 30 µM; on MMP-13 catalytic domain, 0.0011 µM; on MMP-3 catalytic domain, 100 µM; on MMP-17 catalytic domain, more than 100 µM; at MMP-9 full-length, more than 30 µM; on MMP-8 full-length, more than 100 µM. The IC50 on MMP-7 full-length is 7.9 µM; at MMP-14 catalytic domain, 27 µM.

As usually defined, the melting point is the temperature of the solid-liquid transition. For `O=C(O)c1ccc(Cn2nnc(-c3cccc(C#CCc4ccc(F)cc4)c3)n2)cc1` [Example C4, 4-(5-{3-[3-(4-Fluoro-phenyl)-prop-1-ynyl]-phenyl}-tetrazol-2-ylmethyl)-benzoic acid], the melting point was in the range of 210 to 212 °C. Further, at MMP-13 catalytic domain, the IC50 is 0.0015 µM. For the same compound, the IC50 on MMP-3 catalytic domain turned out to be 4.7 µM. Also, the IC50 on MMP-17 catalytic domain amounted to 30 µM. Also, the IC50 on MMP-9 full-length was more than 100 µM. Further, the IC50 at MMP-8 full-length is more than 100 µM. The IC50 at MMP-14 catalytic domain was more than 30 µM. For the same compound, the IC50 at MMP-12 catalytic domain was 18 µM.

Compound `O=C(O)c1ccc(Cn2nnc(-c3ccnc(C(=O)NCc4ccc(F)cc4)c3)n2)cc1` [Example F12, 4-{5-[2-(4-Fluoro-benzylcarbamoyl)-pyridin-4-yl]-tetrazol-2-ylmethyl}-benzoic acid] returned a melting point of 193 to 194 °C. On MMP-1 full-length, the IC50 was more than 100 µM. For the same compound, at MMP-13 catalytic domain, the IC50 turned out to be 0.0017 µM. Moreover, the IC50 on MMP-3 catalytic domain is 100 µM. Further, the IC50 on MMP-9 full-length was more than 100 µM. Also, at MMP-8 full-length, the IC50 is more than 100 µM. This compound also came in with an IC50 against MMP-7 full-length of more than 100 µM. Further, the IC50 at MMP-14 catalytic domain was more than 100 µM.

`COc1ccc(CC#Cc2cncc(-c3nnn(Cc4ccc(C(=O)O)cc4)n3)c2)cc1` [Example H4, 4-(5-{5-[3-(4-Methoxy-phenyl)-prop-1-ynyl]-pyridin-3-yl}-tetrazol-2-ylmethyl)-benzoic acid]: the IC50 on MMP-1 full-length is more than 100 µM; on MMP-13 catalytic domain, 0.0027 µM; at MMP-3 catalytic domain, 4.3 µM; at MMP-17 catalytic domain, more than 100 µM; at MMP-9 full-length, more than 30 µM; on MMP-8 full-length, more than 100 µM. Moreover, the IC50 against MMP-7 full-length and on MMP-14 catalytic domain was more than 30 µM each time.

(Values after patent US20090029995A1, “HETERO BIARYL DERIVATIVES AS MATRIX METALLOPROTEINASE INHIBITORS” (WARNER-LAMBERT COMPANY, priority 2002, published 2009).)
